Measurements: US20230000808A1, “COMPOSITIONS AND METHODS EXCLUDING OR WITH REDUCED GLUTAMINE FOR THE TREATMENT OF HEMOGLOBINOPATHIES AND THALASSEMIAS” (AXCELLA HEALTH INC., priority 2019, published 2023)

What was measured:
IL-6 [1] = test: LPS-induced IL-6 secretion in primary human monocyte-derived macrophages (ELISA); format: cell-based; parameters: Donor 1 IL-6 Measurements Mean: unit not given here; settings: for Donor 1 IL-6 Measurements Mean / Donor 2 IL-6 Measurements Mean / Donor 3 IL-6 Measurements Mean: LPS, baseline subtracted; for effect on LPS-induced IL-6 secretion: Two Way ANOVA Dunnett
Experimental: Primary human PMBC derived macrophages were seeded on day 0 at 3.0×10^4 cells per well in 96-well microplates (ThermoFisher) in Dulbecco's Modified Eagle Medium (DMEM) (Gibco) supplemented with penicillin-streptomycin (Hyclone) and 10% heat inactivated fetal bovine serum (HI-FBS) (Atlanta Bio) and incubated overnight at 37° C., 5% CO2. On day 1, cells were washed once with 150 μl per well DPBS (Gibco) and treated with 75 μl of: • a. […] The same medium described above with one amino acid at various concentrations including complete dropout. […] On day 3, the supernatant was collected and immediately frozen in −80° C. freezer. Cells were washed once with 150 μl DPBS and viability was assessed using the WST-8 Cell Proliferation Cytotoxicity Assay (Dojindo). […] Protein levels in supernatant samples were analyzed by ELISA for IL-6 and TNFα using commercially available kits (R&D Systems) according to manufacturer-supplied protocols.

IL-6 [2] = test: Secreted IL-6 in HLMVEC treated with TNF-α (FirePlex); format: cell-based, human
In short: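 Primary human lung microvascular endothelial cells, after overnight attachment, were switched to medium with amino acid levels mimicking SCD patient blood, plus 0.5 ng/mL TNF-α with or without amino acid treatments at 20× mean physiological plasma concentrations. Supernatant IL-6 measured by FirePlex immunoassay, interpolated from a standard curve.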

[3] = test system: RBCs of healthy whole blood; test: RBC deformability (Elongation Index, LORRCA ektacytometry), ex vivo TBHP oxidation of healthy whole blood; format: cell-based, human; settings: for EI over vehicle control, both ½ EImax and EImax: healthy donor 2, single amino acid treatments
Text: Whole blood from healthy African American and/or Hispanic donors was obtained from Research Blood Components, LLC based on the following donor selection criteria: Adult age (between 18 and 50 years), normal BMI (<30), and absence of other confounding clinical conditions. Whole blood from SCD donors were obtained from BioIVT based on the following donor selection criteria: Patients with genotypes HbSS, HbSC, HbS/β^0 and at least 1-2 months gap since last blood transfusion. Whole blood was shipped on ice on the same day as blood draw. Upon receipt, the blood sample was aliquoted and stored in the refrigerator until used for studies.
RBC deformability measurements were conducted with the Laser Optical Rotational Red Cell Analyzer (LORRCA) from RR Mechatronics in a temperature-controlled environment (37° C.). Briefly, an even layer of RBCs suspended in polyvinylpyrrolidone (PVP) is subjected to shear stress gradient (0.3 to 30 Pa) through two concentric cylinders and the resulting changes in RBC shape or deformability are measured by a laser beam diffraction pattern. The captured images of RBC shape in response to increasing shear stress are then analyzed by the LORRCA program to calculate Elongation Index (EI).
Healthy RBCs have higher deformability ≥0.5 EI and SCD RBCs have lower deformability or EI values as studied by LORRCA ektacytometry in the field. […] The induced hemolysis model in this disclosure involves use of tert-butyl hydroperoxide (TBHP) to lower EI of RBCs.
The ex vivo hemolysis study disclosed here involves overnight treatment of whole blood with vehicle as a control and specific amino acids followed by rapid oxidation (5 min) with TBHP. Method for oxidation of whole blood with tert-butyl hydroperoxide has been used in prior literature (Diederich L, et al, Front Physiol. 2018 May 11; 9:332). RBC deformability or shape changes are then measured with LORRCA ektacytometry.
Whole blood aliquots stored in the fridge were brought up to room temperature while gently shaking on a rocker at low speed for an hour to ensure gradual and uniform suspension of red blood cells prior to deformability measurements. Vehicle control used in the study was 1× Dulbecco's […]) and amino acids disclosed herein were added (at either final 10× or 2.5 mM concentration as indicated) to corresponding vehicle and amino acid treatment conditions. The samples were then incubated overnight at 37° C. The next day, 25 μl of whole blood was taken from each treatment condition and added to 5 mL Elon ISO viscous solution from RR Mechatronics. The sample was inverted 15-20 times to ensure proper mixing of the treated RBCs with the Elon ISO solution followed by loading the sample on LORRCA and capturing RBC deformability or shape measurements over the applied shear gradient. The remaining whole blood treatments were returned to incubator (37° C.) until deformability measurements were completed for all treatments. To the remaining whole blood treatment samples, TBHP solution (5.0-6.0 M in Decane, Sigma) was added at 2.5 mM final concentration from a 100 mM freshly prepared stock and incubated for further 5 min at 37° C. 25 μl of this TBHP-treated sample was immediately removed at the end of the 5 min incubation and added to the Elon ISO solution for RBC deformability measurement after oxidation. Included in the Tables 13-15 are EI measurements at ½ EImax shear stress 1.69 Pa and EImax shear stress 30 Pa from these studies and FIG. 1 captures EI measurements for all shear stress points for the indicated treatment conditions.

**Q.** How did the “Donor 1 IL-6 Measurements Mean” value (IL-6 [1]; Donor 1, Conc. 0 X (baseline)) turn out when CC(=O)N[C@@H](CS)C(=O)O [N-Acetyl Cysteine, N-acetylcysteine] was run?
**A.** 0

**Q.** What about the “Donor 1 IL-6 Measurements Mean” value (IL-6 [1]; Donor 1, Conc. 5 X) of the same compound?
**A.** 308.1772

**Q.** What about the “Donor 1 IL-6 Measurements Mean” value (IL-6 [1]; Donor 1, Conc. 10 X) of the same compound?
**A.** −121.142

**Q.** And the “Donor 1 IL-6 Measurements Mean” value (IL-6 [1]; Donor 1, Conc. 20 X)?
**A.** −553.802

**Q.** And the “Donor 1 IL-6 Measurements Mean” value (IL-6 [1]; Donor 1, Conc. 40 X)?
**A.** −914.194

**Q.** What about the “effect on LPS-induced IL-6 secretion” value (IL-6 [1]; Donor 1) of the same compound?
**A.** significantly reduced

**Q.** What about the “Donor 2 IL-6 Measurements Mean” value (IL-6 [1]; Donor 2, Conc. 0 X (baseline)) of the same compound?
**A.** −2.4E−15

**Q.** What about the “Donor 2 IL-6 Measurements Mean” value (IL-6 [1]; Donor 2, Conc. 5 X) of the same compound?
**A.** −0.7946

**Q.** And the “Donor 2 IL-6 Measurements Mean” value (IL-6 [1]; Donor 2, Conc. 10 X)?
**A.** −9.751

**Q.** And the “Donor 2 IL-6 Measurements Mean” value (IL-6 [1]; Donor 2, Conc. 20 X)?
**A.** −24.9999

**Q.** And the “Donor 2 IL-6 Measurements Mean” value (IL-6 [1]; Donor 2, Conc. 40 X)?
**A.** −33.7585

**Q.** And the “effect on LPS-induced IL-6 secretion” value (IL-6 [1]; Donor 2)?
**A.** significantly reduced

**Q.** And the “Donor 3 IL-6 Measurements Mean” value (IL-6 [1]; Donor 3, Conc. 0 X (baseline))?
**A.** −9.5E−15

**Q.** And the “Donor 3 IL-6 Measurements Mean” value (IL-6 [1]; Donor 3, Conc. 5 X)?
**A.** −70.3269

**Q.** What about the “Donor 3 IL-6 Measurements Mean” value (IL-6 [1]; Donor 3, Conc. 10 X) of the same compound?
**A.** −103.586

**Q.** And the “Donor 3 IL-6 Measurements Mean” value (IL-6 [1]; Donor 3, Conc. 20 X)?
**A.** −122.656

**Q.** And the “Donor 3 IL-6 Measurements Mean” value (IL-6 [1]; Donor 3, Conc. 40 X)?
**A.** −140.851

**Q.** And the “effect on LPS-induced IL-6 secretion” value (IL-6 [1]; Donor 3)?
**A.** significantly reduced

**Q.** And the “Secreted IL6 Median” value (IL-6 [2]; HLMVEC + 0.5 ng/mL TNF-α, 24 h, amino acids 20x HMDB, Nac/Cit/Car 5 mM as bracketed)?
**A.** −0.497

**Q.** And the “EI over vehicle control, both ½ EImax and EImax” value [3]?
**A.** higher than the vehicle

**Q.** For NC(=O)CC[C@H](N)C(=O)O [Glutamine, L-glutamine], which “Donor 1 IL-6 Measurements Mean” value (IL-6 [1]; Donor 1, Conc. 749 μM (baseline)) is on record?
**A.** 0

**Q.** What about the “Donor 1 IL-6 Measurements Mean” value (IL-6 [1]; Donor 1, Conc. 3747 μM) of the same compound?
**A.** 291.5443

**Q.** And the “Donor 1 IL-6 Measurements Mean” value (IL-6 [1]; Donor 1, Conc. 11242 μM)?
**A.** 397.1745

**Q.** What about the “Donor 1 IL-6 Measurements Mean” value (IL-6 [1]; Donor 1, Conc. 22484 μM) of the same compound?
**A.** 440.1437

**Q.** And the “effect on LPS-induced IL-6 secretion” value (IL-6 [1]; Donor 1)?
**A.** increased

**Q.** What about the “Donor 2 IL-6 Measurements Mean” value (IL-6 [1]; Donor 2, Conc. 749 μM (baseline)) of the same compound?
**A.** 2.37E−15

**Q.** And the “Donor 2 IL-6 Measurements Mean” value (IL-6 [1]; Donor 2, Conc. 3747 μM)?
**A.** 22.52

**Q.** What about the “Donor 2 IL-6 Measurements Mean” value (IL-6 [1]; Donor 2, Conc. 11242 μM) of the same compound?
**A.** 63.31

**Q.** What about the “Donor 2 IL-6 Measurements Mean” value (IL-6 [1]; Donor 2, Conc. 22484 μM) of the same compound?
**A.** 34.39

**Q.** What about the “effect on LPS-induced IL-6 secretion” value (IL-6 [1]; Donor 2) of the same compound?
**A.** increased

**Q.** And the “Donor 3 IL-6 Measurements Mean” value (IL-6 [1]; Donor 3, Conc. 749 μM (baseline))?
**A.** 3.79E−14

**Q.** What about the “Donor 3 IL-6 Measurements Mean” value (IL-6 [1]; Donor 3, Conc. 3747 μM) of the same compound?
**A.** 25.35

**Q.** What about the “Donor 3 IL-6 Measurements Mean” value (IL-6 [1]; Donor 3, Conc. 11242 μM) of the same compound?
**A.** 98.4903

**Q.** And the “Donor 3 IL-6 Measurements Mean” value (IL-6 [1]; Donor 3, Conc. 22484 μM)?
**A.** 108.5158

**Q.** And the “effect on LPS-induced IL-6 secretion” value (IL-6 [1]; Donor 3)?
**A.** significantly increased

**Q.** And the “IL-6 secretion from TNFα treated HLMVEC” value (IL-6 [2]; 0.5 ng/mL TNF-α, amino acids at 20× HMDB, 24 hours)?
**A.** increased

**Q.** What about the “effectiveness among all treatment groups, EI and fold change relative to vehicle” value ([3]; healthy donor 2) of the same compound?
**A.** least effective

**Q.** And the “EI over vehicle control, both ½ EImax and EImax” value [3]?
**A.** higher than the vehicle
